Reference: patent publication US10654845B2, “2-(het)aryl-substituted fused bicyclic heterocycle derivatives as pesticides” (BAYER CROPSCIENCE AKTIENGESELLSCHAFT, priority 2015, dated 2020)

Experiments:
[1] = log P by HPLC on reversed-phase column (C18), EEC Directive 79/831 Annex V.A8
Text: Called log P (HCOOH) in the table.
Called log P (neutral) in the table.

Phaedon cochleariae = Phaedon cochleariae spray test; assay type: in vivo; conditions: 500 g/ha, after 7 days, beetle larvae killed; for pest or weed control at 500 g/ha: Phaedon cochleariae, 168 h, read-out: efficacy in %
Experimental: Phaedon cochleariae-Spray Test
Solvent: 78.0 parts by weight of acetone
• 1.5 parts by weight of dimethylformamide Emulsifier: alkylaryl polyglycol ether
To produce a suitable preparation of active compound, 1 part by weight of active compound is dissolved using the stated parts by weight of solvent and made up with water containing an emulsifier concentration of 1000 ppm until the desired concentration is attained. To produce further test concentrations, the preparation is diluted with emulsifier-containing water.
After 7 days, the efficacy in % is determined. 100% means that all the beetle larvae have been killed; 0% means that no beetle larvae have been killed.

[2] = reversed-phase HPLC column (C18), pH 7.8, log P (neutral), preparation examples, neutral range, pH 7.8
[3] = reversed-phase HPLC column (C18), pH 2.7, logP-acidic, LC-MS acidic range, pH 2.7 (HCOOH), C18, 55° C.
[4] = reversed-phase HPLC column (C18), pH 7.8, logP-neutral, LC-MS neutral range, pH 7.8, C18, 55° C.
[5] = LC-MS acidic range, pH 2.7 (HCOOH), C18, 55° C.
[6] = LC-MS neutral range, pH 7.8, C18, 55° C.

chromatographic logP [1, 2]	logP-acidic ([1]; pH 2.7)	logP-neutral ([1]; pH 7.8)	SMILES	other results
0.76	–	–	CCS(=O)(=O)c1ccc(C(=O)O)nc1-c1nc2cc(C(F)(F)F)ncc2n1C [5-(Ethylsulphonyl)-6-[3-methyl-6-(trifluoromethyl)-3H-imidazo[4,5-c]pyridin-2-yl]pyridine-2-carboxylic acid]	–
2.11	–	–	Cn1c(-c2nc(F)ccc2F)nc2cc(C(F)(F)F)ncc21 [Ex. IX-2, 2-(3,6-Difluoropyridin-2-yl)-3-methyl-6-(trifluoromethyl)-3H-imidazo[4,5-c]pyridine]	–
2.73	–	–	CCSc1ccc(F)nc1-c1nc2cc(C(F)(F)F)ncc2n1C [Ex. XI-2, 2-[3-(Ethylsulphanyl)-6-fluoropyridin-2-yl]-3-methyl-6-(trifluoromethyl)-3H-imidazo[4,5-c]pyridine]	–
2.3	–	–	CCS(=O)(=O)c1ccc(F)nc1-c1nc2cc(C(F)(F)F)ncc2n1C [Ex. XIII-2, 2-[3-(Ethylsulphonyl)-6-fluoropyridin-2-yl]-3-methyl-6-(trifluoromethyl)-3H-imidazo[4,5-c]pyridine]	–
3.14	–	–	CCSc1ccc(S(=O)(=O)CC)c(-c2nc3cc(C(F)(F)F)ncc3n2C)n1 [Example 5, 2-[6-(Ethylsulphanyl)-3-(ethylsulphonyl)pyridin-2-yl]-3-methyl-6-(trifluoromethyl)-3H-imidazo[4,5-c]pyridine]	chromatographic logP [1, 3]: 3.19; chromatographic logP [1, 4]: 3.14
2.17	–	–	CCS(=O)(=O)c1ccc(C(=O)OC)nc1-c1nc2cc(C(F)(F)F)ncc2n1C [Example 12, Methyl 5-(ethylsulphonyl)-6-[3-methyl-6-(trifluoromethyl)-3H-imidazo[4,5-c]pyridin-2-yl]pyridine-2-carboxylate]	chromatographic logP [1, 3]: 2.17; chromatographic logP [1, 4]: 2.17
2.27	–	–	CCS(=O)(=O)c1ccc(S(=O)(=O)CC)c(-c2nc3cc(C(F)(F)F)ncc3n2C)n1 [Example 15, 2-[3,6-Bis(ethylsulphonyl)pyridin-2-yl]-3-methyl-6-(trifluoromethyl)-3H-imidazo[4,5-c]pyridine]	chromatographic logP [1, 3]: 2.31; chromatographic logP [1, 4]: 2.28; pest or weed control at 500 g/ha (Phaedon cochleariae): 100%
–	2.77	2.69	CCS(=O)(=O)c1ccc(Oc2cc(C(F)(F)F)n[nH]2)nc1-c1nc2cc(C(F)(F)F)ncc2n1C [Example 17]	–
–	3.36	–	CCSc1ccc(NC(=O)c2ccccc2)nc1-c1nc2cc(C(F)(F)F)ncc2n1C [Example 19]	–
–	2.47	–	CCS(=O)(=O)c1ccc(N(S(C)(=O)=O)S(C)(=O)=O)nc1-c1nc2cc(C(F)(F)F)ncc2n1C [Example 25]	–
0.85	–	–	CCS(=O)(=O)c1ccc(NS(C)(=O)=O)nc1-c1nc2cc(C(F)(F)F)ncc2n1C [Example 26, N-{5-(Ethylsulphonyl)-6-[3-methyl-6-(trifluoromethyl)-3H-imidazo[4,5-c]pyridin-2-yl]pyridin-2-yl}methanesulphonamide]	chromatographic logP [1, 3]: 1.92; chromatographic logP [1, 4]: 0.85; pest or weed control at 500 g/ha (Phaedon cochleariae): 100%
2.75	–	–	CCS(=O)(=O)c1ccc(SC)nc1-c1nc2cc(C(F)(F)F)ncc2n1C [Example 28, 2-[3-(Ethylsulphonyl)-6-(methylsulphanyl)pyridin-2-yl]-3-methyl-6-(trifluoromethyl)-3H-imidazo[4,5-c]pyridine]	chromatographic logP [1, 3]: 2.81; chromatographic logP [1, 4]: 2.75
–	–	–	CCS(=O)(=O)c1ccc(SCc2ccccc2)nc1-c1nc2cc(C(F)(F)F)ncc2n1C [Example 30, 2-[6-(Benzylsulphanyl)-3-(ethylsulphonyl)pyridin-2-yl]-3-methyl-6-(trifluoromethyl)-3H-imidazo[4,5-c]pyridine]	chromatographic logP ([1]; pH 2.7): 3.81; chromatographic logP ([1]; pH 7.8): 3.72
–	3.17	3.14	CCNC(=S)c1ccc(S(=O)(=O)CC)c(-c2nc3cc(C(F)(F)F)ncc3n2C)n1 [Example 35]	–
–	2.66	2.66	CCS(=O)(=O)c1ccc([S+]([O-])Cc2ccccc2)nc1-c1nc2cc(C(F)(F)F)ncc2n1C (stereo not drawn) [Example 39]	–
1.79	–	–	CCS(=N)(=O)c1ccc(S(=O)(=O)CC)c(-c2nc3cc(C(F)(F)F)ncc3n2C)n1 (stereo not drawn) [Example 41, 2-[6-(S-Ethylsulphonimidoyl)-3-(ethylsulphonyl)pyridin-2-yl]-3-methyl-6-(trifluoromethyl)-3H-imidazo[4,5-c]pyridine]	chromatographic logP [1, 3]: 1.78; chromatographic logP [1, 4]: 1.79
–	–	–	CCS(=O)(=O)c1ccc(Sc2ccccc2)nc1-c1nc2cc(C(F)(F)F)ncc2n1C [Example 42]	logP-acidic [1, 5]: 3.68; logP-neutral [1, 6]: 3.64
–	2.08	2.08	CCS(=O)(=O)c1ccc(S(C)(=O)=O)nc1-c1nc2cc(C(F)(F)F)ncc2n1C [Example 45]	–
–	–	–	CCS(=O)(=O)c1ccc(C(N)=O)nc1-c1nc2cc(C(F)(F)F)ncc2n1C [Example 46]	logP-acidic [1, 5]: 1.78; logP-neutral [1, 6]: 1.68; efficacy in % (Phaedon cochleariae): 100%
–	2.15	2.08	CCS(=O)(=O)c1ccc(S(=O)(=O)NC)nc1-c1nc2cc(C(F)(F)F)ncc2n1C [Example 47]	–
–	2.36	2.30	CCNS(=O)(=O)c1ccc(S(=O)(=O)CC)c(-c2nc3cc(C(F)(F)F)ncc3n2C)n1 [Example 48]	–
2.49	–	–	CCS(=O)(=O)c1ccc(S(=O)(=O)NC(C)C)nc1-c1nc2cc(C(F)(F)F)ncc2n1C [Example 49, 5-(Ethylsulphonyl)-N-isopropyl-6-[3-methyl-6-(trifluoromethyl)-3H-imidazo[4,5-c]pyridin-2-yl]pyridine-2-sulphonamide]	chromatographic logP [1, 3]: 2.56; chromatographic logP [1, 4]: 2.49
–	2.54	2.47	CCS(=O)(=O)c1ccc(S(=O)(=O)N(C)C)nc1-c1nc2cc(C(F)(F)F)ncc2n1C [Example 50]	–
–	3.37	3.36	CCCOc1ccc(S(=O)(=O)CC)c(-c2nc3cc(C(F)(F)F)ncc3n2C)n1 [Example 51]	efficacy in % (Phaedon cochleariae): 100%
–	2.08	2.12	CCS(=O)(=O)c1ccc(NC(=O)c2cccnc2)nc1-c1nc2cc(C(F)(F)F)ncc2n1C [Example 54]	efficacy in % (Phaedon cochleariae): 100%
–	–	–	CCS(=O)(=O)c1ccc(NC(=O)Cc2ccccc2)nc1-c1nc2cc(C(F)(F)F)ncc2n1C [Example 68]	efficacy in % (Phaedon cochleariae): 100%
2.01	–	–	CCS(=O)(=O)c1ccc(NC(C)=O)nc1-c1nc2cc(C(F)(F)F)ncc2n1C [N-[5-Ethylsulphonyl-6-[3-methyl-6-(trifluoromethyl)imidazo[4,5-c]pyridin-2-yl]-2-pyridyl]acetamide]	–

SMILES	chromatographic logP [1, 2]	logP-acidic ([1]; pH 2.7)	logP-neutral ([1]; pH 7.8)	other results
CCSc1ccc(NC(=O)C2CC2)nc1-c1nc2cc(C(F)(F)F)ncc2n1C [Example 1]	–	2.80	2.79	efficacy in % (Phaedon cochleariae): 100%
CCSc1ccc(NC(=O)C(F)(F)F)nc1-c1nc2cc(C(F)(F)F)ncc2n1C [Example 6]	–	3.18	–	efficacy in % (Phaedon cochleariae): 100%
CCSc1ccc(NC(=O)CC)nc1-c1nc2cc(C(F)(F)F)ncc2n1C [Example 27]	–	2.73	2.62	efficacy in % (Phaedon cochleariae): 100%
CCNC(=O)c1ccc(S(=O)(=O)CC)c(-c2nc3cc(C(F)(F)F)ncc3n2C)n1 [Example 32]	–	2.29	2.22	efficacy in % (Phaedon cochleariae): 100%
